Here are results for 22 compounds from ChEMBL document CHEMBL1149209, “Synthesis and structure-activity relationship of 2-(aminoalkyl)-3,3a,8,12b-tetrahydro-2H-dibenzocyclohepta[1,2-b]furan derivatives: a novel series of 5-HT(2A/2C) receptor antagonists” (Bioorg Med Chem Lett, 2004).

The target of test [1] is 5-hydroxytryptamine receptor 2A (Homo sapiens, UniProt P28223). In words: Ability to displace [125I]R91150 from human cloned 5-hydroxytryptamine 2A receptor expressed in L929 cells. In kind it is cell-based.
Test [2] has as its target T1, 5-hydroxytryptamine receptor 2C (Homo sapiens, UniProt P28335).
T1 sequence (P28335 whole entry): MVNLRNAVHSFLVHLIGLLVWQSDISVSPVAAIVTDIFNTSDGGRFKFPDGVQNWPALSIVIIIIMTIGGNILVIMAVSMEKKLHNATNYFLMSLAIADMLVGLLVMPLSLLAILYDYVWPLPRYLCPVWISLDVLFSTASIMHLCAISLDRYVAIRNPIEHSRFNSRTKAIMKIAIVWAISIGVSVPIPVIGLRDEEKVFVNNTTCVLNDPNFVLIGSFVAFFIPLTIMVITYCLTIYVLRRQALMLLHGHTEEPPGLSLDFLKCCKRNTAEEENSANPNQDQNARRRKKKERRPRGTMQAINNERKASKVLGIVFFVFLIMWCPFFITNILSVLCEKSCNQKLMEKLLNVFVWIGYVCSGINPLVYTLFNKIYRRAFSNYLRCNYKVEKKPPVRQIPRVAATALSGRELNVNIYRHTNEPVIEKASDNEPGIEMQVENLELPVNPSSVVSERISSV
Briefly: Ability to displace [3H]- mesulergine from human cloned 5-hydroxytryptamine 2C receptor expressed in CHO cells. In kind it is cell-based.

Another test has as its target Histamine H1 receptor (Homo sapiens, UniProt P35367). In words: Ability to displace [3H]pyrilamine from human cloned histamine H1 receptor expressed in CHO cells. In kind it is cell-based.
For the next test, the system named is Rattus norvegicus. Briefly: Effective dose required for antagonistic activity in mCPP challenge test in male wistar rats after subcutaneous administration. It is filed as functional. Conditions: sc.

The structures appear in SMILES notation.

Histamine H1 receptor, sequence (P35367 whole entry): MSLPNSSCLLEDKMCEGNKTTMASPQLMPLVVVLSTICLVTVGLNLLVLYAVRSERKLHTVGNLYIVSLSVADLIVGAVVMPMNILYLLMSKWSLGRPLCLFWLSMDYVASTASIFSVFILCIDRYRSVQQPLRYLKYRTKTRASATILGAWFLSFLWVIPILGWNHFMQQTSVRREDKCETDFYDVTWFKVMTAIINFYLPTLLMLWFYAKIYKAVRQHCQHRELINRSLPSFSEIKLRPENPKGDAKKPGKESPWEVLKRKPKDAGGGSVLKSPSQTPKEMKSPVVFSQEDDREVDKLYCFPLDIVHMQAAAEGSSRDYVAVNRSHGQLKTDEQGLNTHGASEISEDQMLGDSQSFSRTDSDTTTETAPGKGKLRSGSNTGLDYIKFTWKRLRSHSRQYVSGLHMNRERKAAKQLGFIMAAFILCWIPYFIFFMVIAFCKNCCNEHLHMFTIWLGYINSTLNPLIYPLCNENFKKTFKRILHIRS
5-hydroxytryptamine receptor 2A, sequence (P28223 whole entry): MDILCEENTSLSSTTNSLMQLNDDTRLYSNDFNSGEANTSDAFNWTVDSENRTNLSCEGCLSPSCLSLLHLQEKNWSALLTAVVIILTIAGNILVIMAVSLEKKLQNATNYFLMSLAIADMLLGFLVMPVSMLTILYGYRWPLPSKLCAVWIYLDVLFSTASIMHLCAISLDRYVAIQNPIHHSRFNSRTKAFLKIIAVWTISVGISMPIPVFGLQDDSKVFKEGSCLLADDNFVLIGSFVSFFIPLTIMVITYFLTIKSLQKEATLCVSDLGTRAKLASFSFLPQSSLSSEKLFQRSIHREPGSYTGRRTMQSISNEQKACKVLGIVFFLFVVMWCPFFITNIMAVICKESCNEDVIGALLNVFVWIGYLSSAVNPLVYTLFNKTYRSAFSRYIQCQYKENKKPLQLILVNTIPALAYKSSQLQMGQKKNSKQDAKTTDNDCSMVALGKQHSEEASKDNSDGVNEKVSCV

One may read the Ki as the dissociation constant of the complex between target and ligand, obtained from inhibition or displacement. The low end stands for a stronger hold on the target, the high end for a looser hold on the target. As for `c1ccc(C2CCN(CC3C[C@@H]4c5ccccc5Sc5ccccc5[C@H]4O3)CC2)cc1` (stereo partly specified), the Ki was 68.7 nM in test [1], 239 nM in test [2] and 47.1 nM at Histamine H1 receptor.

Turning to `CN1CCN(CC2C[C@@H]3c4ccccc4Cc4ccccc4[C@H]3O2)CC1` (stereo partly specified), the Ki in test [1] came out at 433 nM; in test [2], 677 nM; at Histamine H1 receptor, 3 nM.

For the compound `CN(C)CC1C[C@@H]2c3ccccc3COc3ccccc3[C@H]2O1` (stereo partly specified), the Ki in test [1] is 1060 nM; in test [2] it was 124 nM; on Histamine H1 receptor, 20.6 nM.

Take `CN(C)CC1C[C@@H]2c3ccccc3Sc3ccccc3[C@H]2O1` (stereo partly specified): the Ki in test [1] amounted to 30.7 nM; in test [2], 24.7 nM; on Histamine H1 receptor, 4.3 nM.

Regarding `O=C(c1ccc(F)cc1)C1CCN(CC2C[C@@H]3c4ccccc4Cc4ccccc4[C@H]3O2)CC1` (stereo partly specified), the results for the inhibition constant Ki (in test [1]; in test [2]; on Histamine H1 receptor) were 433 nM, 17 nM and 1.9 nM, respectively.

As usually defined, the ED50 is the dose that gives a 50% effect, or the effect in half of the subjects. Low readings indicate greater potency, high ones weaker potency. With `CN(C)C[C@@H]1C[C@@H]2c3ccccc3Cc3ccccc3N2O1`, the Ki in test [1] is 2.5 nM; in test [2] it was 1 nM; on Histamine H1 receptor it was 0.64 nM. In the test with Rattus norvegicus, the ED50 stood at 0.04 mg/kg.

`CN(C)C[C@H]1C[C@@H]2c3ccccc3Cc3ccccc3[C@H]2O1`: the Ki in test [1] amounted to 2.5 nM; in test [2], 0.93 nM; on Histamine H1 receptor, 0.54 nM. In the test with Rattus norvegicus, this compound returned an ED50 of 0.04 mg/kg.

As for `CN(C)C[C@@H]1C[C@@H]2c3ccccc3Cc3ccccc3[C@H]2O1`, the results for the Ki (in test [1]; in test [2]; on Histamine H1 receptor) were 19.6 nM, 3.25 nM and 0.63 nM, respectively. In addition, it took a dose of 0.06 mg/kg to reach the 50% effect level with Rattus norvegicus (ED50).

Consider `CN(C)CC1C[C@@H]2c3ccccc3Cc3ccccc3[C@H]2O1` (stereo partly specified), for which the figures for the Ki (in test [1]; in test [2]; at Histamine H1 receptor) were 21.7 nM, 6.7 nM and 0.7 nM, respectively.

For `CN(C)CC1C[C@@H]2c3ccccc3Oc3ccccc3[C@H]2O1` (stereo partly specified), the results for the inhibition constant Ki (in test [1]; in test [2]; at Histamine H1 receptor) were 37 nM, 31 nM and 14 nM, respectively.

Consider `CNC[C@@H]1CC2c3ccccc3Cc3ccccc3C2O1` (single isomer, unassigned), for which the Ki is 74.1 nM in test [1], 15.9 nM in test [2] and 3.5 nM on Histamine H1 receptor. Besides, in the test on Rattus norvegicus, the ED50 is 2.2 mg/kg.

Consider `CN(C)CC1C[C@@H]2c3ccccc3OCc3ccccc3[C@H]2O1` (stereo partly specified), for which the Ki in test [1] worked out at 90.5 nM; in test [2], 32.5 nM; on Histamine H1 receptor, 9.6 nM.

For `CN(C)CC1C[C@H]2c3ccccc3Cc3ccccc3[C@H]2O1` (stereo partly specified), the Ki amounted to 102 nM in test [1], 166 nM in test [2] and 27 nM on Histamine H1 receptor.

For the compound `c1ccc(C2CCN(CC3C[C@@H]4c5ccccc5Cc5ccccc5[C@H]4O3)CC2)cc1` (stereo partly specified), the inhibition constant (Ki) in test [1] stood at 1090 nM; in test [2] it was 42.7 nM; at Histamine H1 receptor, 29.7 nM.

On to `CN(C)C[C@@H]1C[C@H]2c3ccccc3Cc3ccccc3[C@@H]2O1`, for which the Ki in test [1] worked out at 104 nM; in test [2], 28 nM; at Histamine H1 receptor, 3.74 nM. Besides, in the test on Rattus norvegicus, the ED50 was 1.26 mg/kg.

For the compound `OCCN1CCN(CC2C[C@@H]3c4ccccc4Cc4ccccc4[C@H]3O2)CC1` (stereo partly specified), the Ki in test [1] was 86.5 nM; in test [2], 170 nM; at Histamine H1 receptor it was 3.7 nM.

Take `CN(C)CC1C[C@@H]2c3ccccc3N(C)c3ccccc3[C@H]2O1` (stereo partly specified): the Ki in test [1] came to 80.7 nM; in test [2], 12.9 nM; at Histamine H1 receptor, 6 nM.

For `c1ccc2c(c1)Cc1ccccc1[C@H]1OC(CN3CCOCC3)C[C@H]21` (stereo partly specified), the Ki in test [1] came to 433 nM; in test [2], 27 nM; at Histamine H1 receptor, 2.36 nM.

`CN1CCN(CC2C[C@@H]3c4ccccc4Sc4ccccc4[C@H]3O2)CC1` (stereo partly specified): the Ki in test [1] was found to be 17.3 nM; in test [2], 120 nM; at Histamine H1 receptor it was 1.2 nM.

In the case of `CN(C)CC1C[C@H]2c3ccccc3Oc3ccccc3[C@H]2O1` (stereo partly specified), the Ki came out at 92.6 nM in test [1], 183 nM in test [2] and 32.6 nM on Histamine H1 receptor.

As to `Clc1cccc(N2CCN(CC3C[C@@H]4c5ccccc5Cc5ccccc5[C@H]4O3)CC2)c1` (stereo partly specified), the Ki in test [1] is 56 nM; in test [2], 107 nM; at Histamine H1 receptor, 471 nM.

For the compound `CNCC1C[C@@H]2c3ccccc3Cc3ccccc3[C@H]2O1` (stereo partly specified), the Ki in test [1] was found to be 48.6 nM; in test [2] it was 9.7 nM; at Histamine H1 receptor it was 9.3 nM.
